# Assay results published in patent US10766879B2, “Pyrimidine derivatives as kinase inhibitors and their therapeutical applications” (NantBioScience, Inc., priority 2015, dated 2020).
# Assays:
# Kato III = assay: CellTiterblue viability, 72 hr, Kato III; assay type: cell-based; settings: Homo sapiens, Kato III cells
# Description: (§1) A number of studies were performed to analyze the consequences of tyrosine kinase inhibition in cell lines. To do this, 1000 cells are seeded in 27 μl/well in 384-well microplates, which are then placed in a humidified CO2 incubator at 37° C. overnight. The next day, 3 μl/well of 10× concentrated drug is added and the plates are returned to the incubator for 72 hr. After 72 hr incubation, plates are removed and […] CellTiterblue (Promega) viability reagent is added. Plates are returned to the incubator for 3 hr, after which it is fluorescence measurements are read on the Victor X3 plate reader (Perkin Elmer). Data are analyzed using Excel (Microsoft), and GI50 values are determined using Prism (Graphpad).
# KDR kinase = target: T1, KDR kinase (Homo sapiens, UniProt P35968); assay: KinaseProfiler kinase inhibition assay, KDR; assay type: biochemical; settings: 1 μM compound
# T1 construct: purchased Millipore (KinaseProfiler Service)
# FGFR1 kinase = target: T2, FGFR1 kinase (Homo sapiens, UniProt P11362); assay: KinaseProfiler kinase inhibition assay, FGFR1; assay type: biochemical; settings: 1 μM compound
# T2 construct: purchased Millipore (KinaseProfiler Service)
# T2 sequence (P11362 22-822): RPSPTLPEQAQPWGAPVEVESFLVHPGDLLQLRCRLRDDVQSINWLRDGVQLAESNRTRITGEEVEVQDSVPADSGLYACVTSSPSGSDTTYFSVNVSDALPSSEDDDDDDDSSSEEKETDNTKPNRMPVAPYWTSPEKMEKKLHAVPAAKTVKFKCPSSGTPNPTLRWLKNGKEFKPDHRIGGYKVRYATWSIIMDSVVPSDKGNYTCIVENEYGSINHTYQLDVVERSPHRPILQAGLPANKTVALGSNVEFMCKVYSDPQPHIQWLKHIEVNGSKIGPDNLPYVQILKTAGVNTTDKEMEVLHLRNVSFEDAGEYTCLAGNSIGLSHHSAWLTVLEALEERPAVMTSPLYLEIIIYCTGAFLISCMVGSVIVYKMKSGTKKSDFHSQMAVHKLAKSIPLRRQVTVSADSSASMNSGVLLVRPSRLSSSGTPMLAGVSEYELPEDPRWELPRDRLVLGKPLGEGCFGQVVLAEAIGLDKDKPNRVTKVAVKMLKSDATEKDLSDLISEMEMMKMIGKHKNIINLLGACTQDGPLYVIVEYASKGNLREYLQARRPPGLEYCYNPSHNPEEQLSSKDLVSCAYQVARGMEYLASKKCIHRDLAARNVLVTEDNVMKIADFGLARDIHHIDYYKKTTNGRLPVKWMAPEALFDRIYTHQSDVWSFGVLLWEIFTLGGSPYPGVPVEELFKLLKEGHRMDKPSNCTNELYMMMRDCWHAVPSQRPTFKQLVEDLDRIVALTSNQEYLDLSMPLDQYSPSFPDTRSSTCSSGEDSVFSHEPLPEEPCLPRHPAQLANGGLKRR
# KG1a = assay: CellTiterblue viability, 72 hr, KG1a; assay type: cell-based; settings: Homo sapiens, KG-1a, KG1a cells
# Description: as §1
# c-Src kinase = target: T3, c-Src kinase (Homo sapiens, UniProt P12931); assay: KinaseProfiler kinase inhibition assay, c-Src; assay type: biochemical; settings: 1 μM compound; read-out: % Inhibition @1 μM cSrc
# T3 construct: purchased Millipore (KinaseProfiler Service)
# T3 sequence (P12931 whole entry): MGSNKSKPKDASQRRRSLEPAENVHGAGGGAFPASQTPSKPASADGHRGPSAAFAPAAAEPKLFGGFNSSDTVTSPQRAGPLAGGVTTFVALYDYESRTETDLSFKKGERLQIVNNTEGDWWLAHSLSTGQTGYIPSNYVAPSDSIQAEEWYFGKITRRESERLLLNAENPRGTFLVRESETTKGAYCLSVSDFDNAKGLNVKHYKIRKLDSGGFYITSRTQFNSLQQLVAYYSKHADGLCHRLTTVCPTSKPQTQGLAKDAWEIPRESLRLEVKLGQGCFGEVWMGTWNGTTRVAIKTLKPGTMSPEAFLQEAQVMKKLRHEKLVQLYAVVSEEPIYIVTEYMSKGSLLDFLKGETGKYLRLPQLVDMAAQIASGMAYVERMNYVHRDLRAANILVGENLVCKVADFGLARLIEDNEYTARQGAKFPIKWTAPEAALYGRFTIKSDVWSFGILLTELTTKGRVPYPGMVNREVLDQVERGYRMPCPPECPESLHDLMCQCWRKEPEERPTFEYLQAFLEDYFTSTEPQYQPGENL
# AN3_CA = assay: CellTiterblue viability, 72 hr, AN3_CA; assay type: cell-based; settings: Homo sapiens, AN3-CA, AN3_CA cells
# Description: as §1
# Abl kinase = target: T4, Abl kinase (Homo sapiens, UniProt P00519); assay: KinaseProfiler kinase inhibition assay, Abl; assay type: biochemical; settings: 1 μM compound
# T4 construct: purchased Millipore (KinaseProfiler Service)
# Alk kinase = target: T5, Alk kinase (Homo sapiens, UniProt Q9UM73); assay: KinaseProfiler kinase inhibition assay, Alk; assay type: biochemical; settings: 1 μM compound
# T5 construct: purchased Millipore (KinaseProfiler Service)
# T5 sequence (Q9UM73 19-1620): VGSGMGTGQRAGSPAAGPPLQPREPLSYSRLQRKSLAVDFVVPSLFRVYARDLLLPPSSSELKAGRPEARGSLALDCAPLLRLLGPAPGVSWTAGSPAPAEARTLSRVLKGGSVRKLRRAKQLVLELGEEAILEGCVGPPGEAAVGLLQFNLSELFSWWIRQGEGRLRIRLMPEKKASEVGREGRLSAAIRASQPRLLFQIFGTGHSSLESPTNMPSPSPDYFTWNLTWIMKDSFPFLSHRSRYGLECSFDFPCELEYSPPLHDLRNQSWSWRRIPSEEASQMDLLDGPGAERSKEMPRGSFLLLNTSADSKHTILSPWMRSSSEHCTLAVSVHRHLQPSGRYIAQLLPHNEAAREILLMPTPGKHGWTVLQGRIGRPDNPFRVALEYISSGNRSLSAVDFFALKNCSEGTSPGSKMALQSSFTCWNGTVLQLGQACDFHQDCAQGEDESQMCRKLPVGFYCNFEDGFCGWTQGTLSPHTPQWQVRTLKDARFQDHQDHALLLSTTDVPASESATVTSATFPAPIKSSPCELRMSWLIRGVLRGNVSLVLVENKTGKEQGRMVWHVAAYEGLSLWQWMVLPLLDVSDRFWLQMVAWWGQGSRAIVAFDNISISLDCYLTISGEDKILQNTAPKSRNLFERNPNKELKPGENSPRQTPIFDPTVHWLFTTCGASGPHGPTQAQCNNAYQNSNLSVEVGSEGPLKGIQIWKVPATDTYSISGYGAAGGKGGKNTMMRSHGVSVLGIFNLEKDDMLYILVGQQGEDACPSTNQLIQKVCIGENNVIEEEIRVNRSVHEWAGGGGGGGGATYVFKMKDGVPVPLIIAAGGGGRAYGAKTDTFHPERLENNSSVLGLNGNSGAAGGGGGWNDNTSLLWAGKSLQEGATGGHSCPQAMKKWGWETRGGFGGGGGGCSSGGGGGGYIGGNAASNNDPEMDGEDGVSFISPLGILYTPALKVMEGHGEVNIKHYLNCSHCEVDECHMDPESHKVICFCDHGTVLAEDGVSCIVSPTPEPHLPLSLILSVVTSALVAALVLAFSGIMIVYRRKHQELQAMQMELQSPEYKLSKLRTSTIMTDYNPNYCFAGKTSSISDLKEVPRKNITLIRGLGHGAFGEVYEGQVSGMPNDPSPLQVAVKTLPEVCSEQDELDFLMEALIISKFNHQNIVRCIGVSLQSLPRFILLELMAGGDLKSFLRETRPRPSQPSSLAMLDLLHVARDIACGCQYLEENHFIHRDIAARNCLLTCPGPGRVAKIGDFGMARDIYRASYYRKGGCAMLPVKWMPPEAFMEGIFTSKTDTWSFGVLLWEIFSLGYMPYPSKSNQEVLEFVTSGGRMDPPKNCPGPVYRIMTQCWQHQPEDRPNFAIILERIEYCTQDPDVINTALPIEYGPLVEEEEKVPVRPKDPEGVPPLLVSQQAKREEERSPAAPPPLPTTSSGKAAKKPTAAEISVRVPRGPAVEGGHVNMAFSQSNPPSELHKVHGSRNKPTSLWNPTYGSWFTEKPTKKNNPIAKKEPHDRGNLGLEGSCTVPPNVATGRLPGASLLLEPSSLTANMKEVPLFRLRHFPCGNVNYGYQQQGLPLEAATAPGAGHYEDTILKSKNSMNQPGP
# Tie2 = target: T6, Tie2 (Homo sapiens, UniProt Q02763); assay: KinaseProfiler kinase inhibition assay, Tie2; assay type: biochemical; settings: 1 μM compound
# T6 construct: purchased Millipore (KinaseProfiler Service)
# T6 sequence (Q02763 23-1124): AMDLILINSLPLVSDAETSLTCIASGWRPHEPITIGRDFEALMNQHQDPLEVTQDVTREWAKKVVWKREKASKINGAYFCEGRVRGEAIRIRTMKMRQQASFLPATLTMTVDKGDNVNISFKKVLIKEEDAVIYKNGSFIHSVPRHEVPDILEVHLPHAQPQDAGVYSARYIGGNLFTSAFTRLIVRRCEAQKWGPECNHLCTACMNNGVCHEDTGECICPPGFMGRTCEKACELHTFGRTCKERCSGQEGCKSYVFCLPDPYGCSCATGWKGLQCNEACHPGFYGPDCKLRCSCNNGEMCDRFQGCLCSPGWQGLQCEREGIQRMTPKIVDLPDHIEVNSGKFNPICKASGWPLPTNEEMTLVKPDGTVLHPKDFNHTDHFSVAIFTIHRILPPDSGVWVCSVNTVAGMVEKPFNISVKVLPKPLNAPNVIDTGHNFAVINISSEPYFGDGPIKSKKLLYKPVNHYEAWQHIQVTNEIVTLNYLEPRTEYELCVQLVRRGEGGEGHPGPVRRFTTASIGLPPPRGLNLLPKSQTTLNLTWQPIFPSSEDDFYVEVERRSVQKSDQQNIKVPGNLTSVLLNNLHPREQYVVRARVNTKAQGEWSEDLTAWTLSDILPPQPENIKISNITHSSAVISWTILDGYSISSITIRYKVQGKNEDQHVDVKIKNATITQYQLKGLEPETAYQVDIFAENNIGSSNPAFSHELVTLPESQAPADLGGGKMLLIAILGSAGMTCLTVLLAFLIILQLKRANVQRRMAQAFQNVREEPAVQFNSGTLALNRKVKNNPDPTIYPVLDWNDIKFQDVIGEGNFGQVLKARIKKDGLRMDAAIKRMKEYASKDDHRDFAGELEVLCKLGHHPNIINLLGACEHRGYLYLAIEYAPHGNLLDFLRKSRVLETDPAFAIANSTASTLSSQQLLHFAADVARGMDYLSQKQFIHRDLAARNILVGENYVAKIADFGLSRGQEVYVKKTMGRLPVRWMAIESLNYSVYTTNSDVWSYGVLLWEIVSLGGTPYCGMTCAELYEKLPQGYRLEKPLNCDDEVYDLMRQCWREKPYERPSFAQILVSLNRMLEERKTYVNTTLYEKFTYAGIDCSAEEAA
# MDA-MB134 = assay: CellTiterblue viability, 72 hr, MDA-MB134; assay type: cell-based; settings: MDA-MB134 cells
# Description: as §1
# RT112 = assay: CellTiterblue viability, 72 hr, RT112; assay type: cell-based; settings: Homo sapiens, RT-112, RT112 cells
# Description: as §1
# Ret kinase = target: T7, Ret kinase (Homo sapiens, UniProt P07949); assay: KinaseProfiler kinase inhibition assay, Ret; assay type: biochemical; settings: 1 μM compound
# T7 construct: purchased Millipore (KinaseProfiler Service)
# T7 sequence (P07949 29-1114): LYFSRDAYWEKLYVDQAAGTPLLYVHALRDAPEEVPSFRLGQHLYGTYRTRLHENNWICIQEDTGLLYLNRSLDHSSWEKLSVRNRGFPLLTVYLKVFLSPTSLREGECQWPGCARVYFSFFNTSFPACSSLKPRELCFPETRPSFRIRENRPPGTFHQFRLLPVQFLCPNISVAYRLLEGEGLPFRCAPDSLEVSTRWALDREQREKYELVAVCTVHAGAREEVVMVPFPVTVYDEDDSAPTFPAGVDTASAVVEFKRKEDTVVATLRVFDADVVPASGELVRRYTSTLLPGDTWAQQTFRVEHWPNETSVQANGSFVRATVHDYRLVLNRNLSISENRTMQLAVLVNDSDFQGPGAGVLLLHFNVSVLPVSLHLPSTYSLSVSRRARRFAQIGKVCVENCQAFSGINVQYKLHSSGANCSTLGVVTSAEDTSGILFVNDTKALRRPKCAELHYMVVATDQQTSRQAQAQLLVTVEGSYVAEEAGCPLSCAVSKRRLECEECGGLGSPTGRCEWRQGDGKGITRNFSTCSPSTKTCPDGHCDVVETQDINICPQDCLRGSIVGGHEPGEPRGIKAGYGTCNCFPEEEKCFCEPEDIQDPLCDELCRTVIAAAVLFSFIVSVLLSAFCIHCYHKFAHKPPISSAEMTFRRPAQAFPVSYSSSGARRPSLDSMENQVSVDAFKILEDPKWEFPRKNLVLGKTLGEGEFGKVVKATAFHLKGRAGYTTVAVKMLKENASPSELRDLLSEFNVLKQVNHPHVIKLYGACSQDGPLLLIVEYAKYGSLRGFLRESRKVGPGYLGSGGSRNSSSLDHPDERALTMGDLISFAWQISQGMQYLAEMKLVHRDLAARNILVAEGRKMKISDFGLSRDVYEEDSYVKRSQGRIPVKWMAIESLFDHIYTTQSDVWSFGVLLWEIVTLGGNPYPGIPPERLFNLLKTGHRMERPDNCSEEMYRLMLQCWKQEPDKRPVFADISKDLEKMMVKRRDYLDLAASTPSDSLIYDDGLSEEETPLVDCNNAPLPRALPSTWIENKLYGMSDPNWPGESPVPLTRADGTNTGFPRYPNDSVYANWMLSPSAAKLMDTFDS
inhibition at 1 µM (KDR kinase),inhibition at 1 µM (FGFR1 kinase),inhibition at 1 µM (c-Src kinase),inhibition at 1 µM (Abl kinase),inhibition at 1 µM (Alk kinase),inhibition at 1 µM (Tie2),GI50 (MDA-MB134),inhibition at 1 µM (Ret kinase),Structure (SMILES),GI50 (Kato III),GI50 (KG1a),GI50 (AN3_CA),GI50 (RT112)
51%,100%,-9%,3%,-41%,23%,28 nM,-13%,CCN1CCN(c2ccc(Nc3ncnc(Oc4cc(F)c5[nH]c(C)cc5c4F)c3C#N)nc2)CC1 [Compound 61],77 nM,4 nM,> 500 nM,11 nM
93%,100%,3%,-7%,3%,24%,18 nM,-42%,CCN1CCN(c2ccc(Nc3ncnc(Oc4cc(F)c5[nH]c(C)cc5c4F)c3C#N)cc2)CC1 [Compound 60],26 nM,5 nM,> 500 nM,47 nM
98%,89%,30%,18%,60%,20%,–,21%,CNC(=O)c1ccc(Nc2cc(Oc3ccc4[nH]c(C)cc4c3F)ncn2)cc1 [Example 12],> 500 nM,–,> 500 nM,–
8%,98%,13%,-1%,-28%,37%,461 nM,-19%,CCN1CCN(c2ccc(Nc3ncnc(Oc4ccc5c(cc(C)n5C)c4F)c3C#N)cc2)CC1 [Compound 65],> 500 nM,> 500 nM,> 500 nM,> 500 nM
70%,92%,15%,-7%,-48%,33%,> 500 nM,-29%,"CCN1CCN(c2ccc(Nc3ncnc(Oc4ccc5[nH]c(C)cc5c4F)c3F)nc2)CC1 [Example 29, N-(5-(4-ethylpiperazin-1-yl)pyridin-2-yl)-5-fluoro-6-((4-fluoro-2-methyl-1H-indol-5-yl)oxy)pyrimidin-4-amine]",> 500 nM,–,> 500 nM,–
96%,46%,16%,7%,68%,-11%,–,-17%,CC(=O)N1CCN(c2ccc(Nc3ncnc(Oc4ccc5[nH]c(C)cc5c4F)c3F)cc2)CC1 [Example 26],> 500 nM,–,> 500 nM,–
96%,100%,85%,67%,46%,94%,111 nM,97%,CCN1CCN(c2ccc(Nc3ncnc(Oc4ccc5[nH]c(C)cc5c4F)c3C(N)=O)cc2)CC1 [Compound 68],23 nM,32 nM,79 nM,11 nM
10%,91%,1%,3%,-3%,13%,282 nM,-41%,CCN1CCN(c2ccc(Nc3ncnc(Oc4ccc5c(cc(C)n5C)c4F)c3F)cc2)CC1 [Compound 63],> 500 nM,> 500 nM,> 500 nM,> 500 nM

# More lines, now with the values behind:
Structure (SMILES),inhibition at 1 µM (KDR kinase),inhibition at 1 µM (FGFR1 kinase),inhibition at 1 µM (c-Src kinase),inhibition at 1 µM (Abl kinase),inhibition at 1 µM (Alk kinase),inhibition at 1 µM (Tie2),GI50 (MDA-MB134),inhibition at 1 µM (Ret kinase),GI50 (Kato III),GI50 (KG1a),GI50 (AN3_CA),GI50 (RT112)
"Cc1cc2c(F)c(Oc3ncnc(Nc4ccc(N5CCN(C)CC5)cc4)c3Cl)ccc2[nH]1 [Compound 35, 5-chloro-6-((4-fluoro-2-methyl-1H-indol-5-yl)oxy)-N-(4-(4-methylpiperazin-1-yl)phenyl)pyrimidin-4-amine]",20%,96%,2%,-15%,-43%,19%,> 500 nM,-22%,> 500 nM,> 500 nM,> 500 nM,> 500 nM
Cc1cc2c(F)c(Oc3ncnc(Nc4ccc(N5CCN(C)CC5)cn4)c3C)ccc2[nH]1 [Compound 41],5%,41%,8%,2%,-41%,12%,241 nM,-35%,> 500 nM,> 500 nM,> 500 nM,> 500 nM
Cc1cc2c(F)c(Oc3ncnc(Nc4ccc(N5CCN(C)CC5)cc4)c3C)ccc2[nH]1 [Compound 40],12%,91%,-2%,2%,-23%,13%,430 nM,-46%,> 500 nM,> 500 nM,> 500 nM,> 500 nM
Cc1cc2c(F)c(Oc3ncnc(Nc4ccc(N5CCN(C)CC5)cn4)c3N)ccc2[nH]1 [Compound 47],1%,34%,-6%,-6%,-31%,11%,> 500 nM,-30%,> 500 nM,> 500 nM,> 500 nM,> 500 nM
Cc1cc2c(F)c(Oc3ncnc(Nc4ccc(N5CCN(C)CC5)cc4)c3C#N)ccc2[nH]1 [Compound 54],97%,101%,8%,3%,-30%,21%,20 nM,-30%,12 nM,4 nM,214 nM,103 nM
Cc1cc2c(F)c(Oc3ncnc(Nc4ccc(N5CCNCC5)cc4)c3C#N)ccc2[nH]1 [Compound 57],94%,99%,12%,-6%,-40%,30%,8 nM,-26%,51 nM,4 nM,> 500 nM,33 nM
CCN1CCN(c2ccc(Nc3ncnc(Oc4ccc5[nH]c(C)cc5c4F)c3C#N)nc2)CC1 [Compound 55],91%,99%,10%,2%,-23%,31%,78 nM,-48%,319 nM,7 nM,98 nM,> 500 nM
COc1c(Nc2ccc(N3CCN(C)CC3)cn2)ncnc1Oc1ccc2[nH]c(C)cc2c1F [Compound 44],-1%,16%,-11%,-6%,-18%,11%,> 500 nM,-12%,> 500 nM,> 500 nM,> 500 nM,> 500 nM
Cc1cc2c(F)c(Oc3ncnc(Nc4ccc(N5CCN(C)CC5)cc4)c3N)ccc2[nH]1 [Compound 46],5%,54%,12%,-13%,-34%,14%,254 nM,-43%,> 500 nM,> 500 nM,> 500 nM,> 500 nM
COc1c(Nc2ccc(N3CCN(C)CC3)cc2)ncnc1Oc1ccc2[nH]c(C)cc2c1F [Compound 43],-7%,48%,-4%,-10%,-32%,21%,> 500 nM,-28%,> 500 nM,> 500 nM,> 500 nM,> 500 nM
